Results taken from paper PMC7933434, “Entropy-driven binding of gut bacterial β-glucuronidase inhibitors ameliorates irinotecan-induced toxicity” (Communications Biology, 2021).
“And” between values parts separate entries of the source, which are not always exact repeats. Equal values may be shown once. Read-outs that look alike come from different tables or passages of the source.

What was measured:
[1] = biological target: EcGUS (Escherichia coli GUS) (Escherichia coli, UniProt P05804); experiment: biochemical
BdGUS = BdGUS (Bifidobacterium dentium, UniProt D2Q7B1); experiment: biochemical; assay type: binding; conditions: BdGUS; Tris buffer (250 mM NaCl, 20 mM Tris, pH 8.0); 298 K
EcGUS = EcGUS (Escherichia coli, UniProt P05804); experiment: Isothermal titration calorimetry, EcGUS; assay type: binding; conditions: EcGUS, 298 K
[2] = biological target: LgGUS (Lactobacillus gasseri GUS) (Lactobacillus gasseri, UniProt Q9AHJ8); experiment: GUS inhibition assay, hydrolysis of 4-methylumbelliferyl-β-glucuronide, LgGUS; assay type: biochemical; conditions: LgGUS; 50 mM sodium acetate pH 4.5, 37 °C
[3] = biological target: BdGUS (Bifidobacterium dentium GUS) (Bifidobacterium dentium, UniProt D2Q7B1); experiment: biochemical; design: GUS activity (hydrolysis rate of MUG) / 1/v: unit not given here
[4] = Tris buffer (250 mM NaCl, 20 mM Tris, pH 8.0)
[5] = phosphate buffer (250 mM NaCl, 20 mM KH2PO4, 100 mM Na2HPO4, pH 8.0)
[6] = [Inhibitor 1] = 6.25 nM, [MUG] 0.375 mM
[7] = [Inhibitor 1] = 6.25 nM, [MUG] 0.75 mM
[8] = [Inhibitor 1] = 6.25 nM, [MUG] 1.5 mM
[9] = [Inhibitor 1] = 6.25 nM, [MUG] 3 mM
[10] = [Inhibitor 1] = 12.5 nM, [MUG] 0.375 mM
[11] = [Inhibitor 1] = 12.5 nM, [MUG] 0.75 mM
[12] = [Inhibitor 1] = 12.5 nM, [MUG] 1.5 mM
[13] = [Inhibitor 1] = 12.5 nM, [MUG] 3 mM
[14] = [Inhibitor 1] = 25 nM, [MUG] 0.375 mM
[15] = [Inhibitor 1] = 25 nM, [MUG] 0.75 mM
[16] = [Inhibitor 1] = 25 nM, [MUG] 1.5 mM
[17] = [Inhibitor 1] = 25 nM, [MUG] 3 mM
[18] = [Inhibitor1] = 50 nM, [MUG] 0.375 mM
[19] = [Inhibitor1] = 50 nM, [MUG] 0.75 mM
[20] = [Inhibitor1] = 50 nM, [MUG] 1.5 mM
[21] = [Inhibitor1] = 50 nM, [MUG] 3 mM

EcGUS, sequence (P05804 whole entry): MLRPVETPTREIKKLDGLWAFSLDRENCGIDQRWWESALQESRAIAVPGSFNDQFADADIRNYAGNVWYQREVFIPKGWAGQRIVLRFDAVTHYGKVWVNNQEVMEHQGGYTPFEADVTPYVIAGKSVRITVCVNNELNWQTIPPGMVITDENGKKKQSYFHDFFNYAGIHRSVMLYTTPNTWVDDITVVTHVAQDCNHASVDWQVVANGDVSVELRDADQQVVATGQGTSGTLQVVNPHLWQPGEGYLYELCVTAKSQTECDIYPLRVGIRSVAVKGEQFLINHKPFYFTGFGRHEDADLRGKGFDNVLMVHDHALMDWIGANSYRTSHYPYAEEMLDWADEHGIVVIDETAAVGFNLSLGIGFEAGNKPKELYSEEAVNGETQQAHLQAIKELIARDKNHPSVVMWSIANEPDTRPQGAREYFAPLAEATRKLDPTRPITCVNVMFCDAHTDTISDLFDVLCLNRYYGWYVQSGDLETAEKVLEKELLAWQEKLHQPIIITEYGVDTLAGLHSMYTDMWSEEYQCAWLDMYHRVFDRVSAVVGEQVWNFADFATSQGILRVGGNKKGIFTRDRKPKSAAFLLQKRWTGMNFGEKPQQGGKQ
EcGUS (Escherichia coli GUS), sequence (P05804 whole entry): as above
BdGUS, sequence (D2Q7B1 entry or part of it): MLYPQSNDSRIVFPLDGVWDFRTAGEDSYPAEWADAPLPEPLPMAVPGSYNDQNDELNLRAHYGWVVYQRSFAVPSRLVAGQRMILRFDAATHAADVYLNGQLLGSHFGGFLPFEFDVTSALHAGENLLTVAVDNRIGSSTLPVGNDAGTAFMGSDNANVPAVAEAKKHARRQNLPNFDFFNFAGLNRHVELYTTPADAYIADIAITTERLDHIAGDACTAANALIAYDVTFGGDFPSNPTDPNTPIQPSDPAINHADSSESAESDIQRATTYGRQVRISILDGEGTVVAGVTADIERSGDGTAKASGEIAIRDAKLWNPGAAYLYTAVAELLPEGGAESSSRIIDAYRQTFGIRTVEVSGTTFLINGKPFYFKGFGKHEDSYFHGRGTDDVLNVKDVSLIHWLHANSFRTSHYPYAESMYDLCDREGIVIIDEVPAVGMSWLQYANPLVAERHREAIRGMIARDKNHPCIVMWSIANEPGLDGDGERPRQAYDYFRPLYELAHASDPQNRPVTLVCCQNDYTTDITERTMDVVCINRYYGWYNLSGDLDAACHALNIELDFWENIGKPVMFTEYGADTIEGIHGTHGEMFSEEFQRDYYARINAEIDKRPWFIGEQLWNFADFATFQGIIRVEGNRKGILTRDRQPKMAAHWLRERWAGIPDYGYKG
BdGUS (Bifidobacterium dentium GUS), sequence (D2Q7B1 1-668): as the sequence (D2Q7B1 entry or part of it) above
LgGUS (Lactobacillus gasseri GUS), sequence (Q9AHJ8 1-598): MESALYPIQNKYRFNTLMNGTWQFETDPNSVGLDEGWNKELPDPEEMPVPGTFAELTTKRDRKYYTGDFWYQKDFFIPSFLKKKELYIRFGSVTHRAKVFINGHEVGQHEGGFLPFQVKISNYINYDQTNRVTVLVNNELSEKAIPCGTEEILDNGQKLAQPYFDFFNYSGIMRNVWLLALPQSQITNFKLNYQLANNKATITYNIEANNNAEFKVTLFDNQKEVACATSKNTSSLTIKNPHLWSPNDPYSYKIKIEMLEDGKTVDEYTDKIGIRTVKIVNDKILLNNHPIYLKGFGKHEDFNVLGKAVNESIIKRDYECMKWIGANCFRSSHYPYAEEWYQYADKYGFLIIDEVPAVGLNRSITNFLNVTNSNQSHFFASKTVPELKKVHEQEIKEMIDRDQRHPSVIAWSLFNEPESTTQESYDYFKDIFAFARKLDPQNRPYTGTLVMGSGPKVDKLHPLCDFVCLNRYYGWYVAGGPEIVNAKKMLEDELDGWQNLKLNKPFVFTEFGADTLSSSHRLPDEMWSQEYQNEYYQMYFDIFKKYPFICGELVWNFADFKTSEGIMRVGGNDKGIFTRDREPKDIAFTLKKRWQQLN

O=C(O)[C@H]1CNC[C@@H](O)[C@@H]1O [Inhibitor 1, Uronic isofagomine]
Ki [1]: 0.016 µM | Ki ([1]; 50 mM HEPES pH 7.5, 37 °C): 0.016 ± 0.002 µM | Ki ([1]; source data of Table 1, from plot of apparent Km against [inhibitor] (μM)): 0.0155 µM | Kd (BdGUS): 300 ± 60 nM | ΔG (BdGUS): –8.91 ± 0.13 kcal/mol | ΔH (BdGUS): –10.47 kcal/mol | —TΔS (BdGUS): 1.56 ± 0.37 kcal/mol | Kd (EcGUS; [4]): 20 ± 2 nM | ΔG (EcGUS; [4]): –10.63 ± 0.075 kcal/mol | —TΔS (EcGUS; [4]): –1.51 ± 0.20 kcal/mol | Kd (EcGUS; [5]): 60 ± 1 nM | ΔG (EcGUS; [5]): –9.89 ± 0.01 kcal/mol | ΔH (EcGUS; [5]): –9.48 ± 0.29 kcal/mol | —TΔS (EcGUS; [5]): –0.41 ± 0.30 kcal/mol | Ki [2]: 110 ± 33 nM | Ki ([3]; BdGUS): 7.4 nM | 1/v [3, 6]: 0.8126 and 0.846 and 0.7526 | GUS activity (hydrolysis rate of MUG) [3, 6]: 0.2748 and 0.264 and 0.2967 | 1/v [3, 7]: 0.5186 and 0.5024 and 0.468 | GUS activity (hydrolysis rate of MUG) [3, 7]: 0.4306 and 0.4444 and 0.4771 | 1/v [3, 8]: 0.3591 and 0.3484 and 0.3239 | GUS activity (hydrolysis rate of MUG) [3, 8]: 0.6217 and 0.6409 and 0.6893 | 1/v [3, 9]: 0.2793 and 0.2899 and 0.2702 | GUS activity (hydrolysis rate of MUG) [3, 9]: 0.7996 and 0.7703 and 0.8263 | 1/v [3, 10]: 1.155 and 1.089 and 1.043 | GUS activity (hydrolysis rate of MUG) [3, 10]: 0.1934 and 0.2051 and 0.2141 | 1/v [3, 11]: 0.6535 and 0.6591 and 0.6116 | GUS activity (hydrolysis rate of MUG) [3, 11]: 0.3417 and 0.3388 and 0.3651 | 1/v [3, 12]: 0.4306 and 0.4268 and 0.4023 | GUS activity (hydrolysis rate of MUG) [3, 12]: 0.5186 and 0.5232 and 0.555 | 1/v [3, 13]: 0.3354 and 0.3372 and 0.306 | GUS activity (hydrolysis rate of MUG) [3, 13]: 0.6657 and 0.6621 and 0.7298 | 1/v [3, 14]: 1.814 and 1.753 and 1.625 | GUS activity (hydrolysis rate of MUG) [3, 14]: 0.1231 and 0.1273 and 0.1374 | 1/v [3, 15]: 0.8901 and 1.007 and 0.9854 | GUS activity (hydrolysis rate of MUG) [3, 15]: 0.2509 and 0.2218 and 0.2266 | 1/v [3, 16]: 0.5908 and 0.5953 and 0.5748 | GUS activity (hydrolysis rate of MUG) [3, 16]: 0.3779 and 0.3751 and 0.3885 | 1/v [3, 17]: 0.423 and 0.431 and 0.4024 | GUS activity (hydrolysis rate of MUG) [3, 17]: 0.5279 and 0.5181 and 0.5549 | 1/v [3, 18]: 3.2999 and 3.135 and 3.11 | GUS activity (hydrolysis rate of MUG) [3, 18]: 0.06767 and 0.07122 and 0.07181 | 1/v [3, 19]: 1.905 and 1.744 and 1.761 | GUS activity (hydrolysis rate of MUG) [3, 19]: 0.1172 and 0.128 and 0.1268 | 1/v [3, 20]: 0.9882 and 1.034 and 0.9748 | GUS activity (hydrolysis rate of MUG) [3, 20]: 0.226 and 0.216 and 0.2291 | 1/v [3, 21]: 0.6379 and 0.6438 and 0.6305 | GUS activity (hydrolysis rate of MUG) [3, 21]: 0.35 and 0.3468 and 0.3542
